Assay results: US9163018B2, “Method of treatment of age-related macular degeneration (AMD)” (Prana Biotechnology Limited, priority 2006, dated 2015)

What was measured:
[1] = target: T1, Aβ 1-42 (Homo sapiens, UniProt P05067); test: Fluorometric H2O2 assay (inhibition of Abeta H2O2 production); type: biochemical; settings: concentration required to inhibit 50% of Abeta H2O2 production; read-out: H2O2 IC50
T1 construct: The reaction solutions contained Aβ 1-42 at concentrations
Protocol: Assay 1. Fluorometric H2O2 Assay
A fluorometric assay was used to test the ability of a test compound to inhibit hydrogen peroxide generation by Aβ in the presence of copper based on dichlorofluoroscein diacetate (DCF; Molecular Probes, Eugene Oreg.). The DCF solution (5 mM) in 100% dimethyl sulphoxide (previously purged with argon for 2 hr at 20° C.) was deacetylated in the presence of 0.25M NaOH for 30 min and neutralized at pH 7.4 to a final concentration of 1 mM. Horseradish peroxidase (HRP) stock solution was prepared to 1 μM at pH 7.4. The reactions were carried out in PBS, pH 7.4 in a 96 well plate (total volume=250 μl/well). […] The reaction mixture was incubated at 37 C for 60 min. […] H2O2 concentration may be established by comparing fluorescence with the H2O2 standards, Inhibition of Aβ H2O2 production was assayed by including a given concentration of test compound(s) in the test wells.

[2] = tested on: M17 human neuroblastoma cells; test: Cytotoxicity, M17 human neuroblastoma cells; type: cell-based; settings: for Cytotox (% viable) M17 cells at 1 μM: 1 μM test compound; for Cytotox (% viable) M17 cells at 10 μM: 10 μM test compound
Protocol: (§1) Assay 3. MTS Assay for Cell Viability
(§2) Cell viability is determined using the MTS assay. Culture medium is replaced with fresh neurobasal medium plus B27 supplements minus antioxidants. 1/10th volume MTS solution (Cell Titre 96 Aqueous One, Promega Corporation) and incubated at 37° C., 2 hrs. 200 microliter aliquots are measured with a spectrophotometer at 560 nm.

[3] = target: T2, Abeta:Zn (25:50 μM) Synthetic Aggregations (Homo sapiens, UniProt P05067); test: Disaggregation of Abeta:Zn synthetic aggregates (ThT fluorescence); type: biochemical; settings: for Disaggregation % Aggregate reduction at 5 μM: 5 μM test compound; for EC50: Abeta:Zn 25:50 μM aggregates
T2 construct: PB Compound Mediated Dissolution of Aggregated Abeta 1-42; purchased Keck Laboratory, Yale University School of Medicine
T2 sequence (P05067 672-713 limits assumed): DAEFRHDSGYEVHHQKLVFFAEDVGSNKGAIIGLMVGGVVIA
Protocol: PB Compound Mediated Dissolution of Aggregated Abeta 1-42
Abeta1-42, is available from the Keck Laboratory, Yale University School of Medicine. PBS (pH 6.6): Sigma Cat# D-8662. Zn(ZnCl2): BDH Cat#100884E. (Dissolved in water in 1 mM concentration) DMSO: Ajax Cat#2225. Thioflavin T: Sigma Cat# T-3516. (Dissolved in water in 1 mM concentration)
By way of example of an amyloid composition, Abeta is dissolved in distilled water and peptide concentration is assessed by measured absorption at 214 nm in UV spectrometer. An aggregation reactive mixture (per one concentration of one testing compound) is set us as follows: Abeta: 25 μM, ZnCl2 50 μM, ThT 50 μM, PBS to make up to 500 μl. The tube is wrapped with foil and incubated at 37 degrees by rotation for 24 hours. A serial dilution of each test compound is made up in DMSO, for example: 100 μM, 500 μM, 1000 μM, 2500 μM and 5000 μM. The final concentrations are 1, 5, 10, 25 and 50 μM, 5 μl of each of these compounds is placed in a centrifuge tube and 5 μl of DMSO is added to both negative and positive control tubes. 495 μl of aggregates (after 24 hours incubation) is added to the centrifuge tube. The negative control is PBS plus ZnCl2 and ThT and DMSO. The positive control is aggregates plus DMSO. The tubes are incubated at 37 degrees for further 2 hours with rotation. Samples are measured for ThT fluorescence using an LS55 (Perkin Elmer) fluorimeter in a cuvette (500 μl volume). The excitation wavelength is 450 nm and the emission wavelength is 480 nm. Data are analyzed using graph pad prism program. The tested compounds included so called “PB” compounds.

[4] = tested on: primary cortical neuronal cultured cells; test: Test compound cytotoxicity, MTS assay, primary cortical neuronal cultures; type: cell-based, mouse; settings: for Cytotox (% viable) Neuronal cells at 1 μM: 1 μM test compound; for Cytotox (% viable) Neuronal cells at 10 μM: 10 μM test compound
Protocol: Assay 2. Neurotoxicity Assays
Primary Cortical Neuronal Cultures
Media was then replaced with Neurobasal media (Invitrogen Life Technologies) and B27 supplements (Invitrogen Life Technologies). Cultures were maintained at 37° C. in 5% CO2. Prior to experimentation, the culture medium was replaced with Neurobasal media and B27 minus antioxidants (Invitrogen Life Technologies).
as §1, §2
Assay 4. Assay for Test Compound Cytoxicity
Neuronal cortical cells were cultured for five days as per Assay 2 in NB media and B27 supplement.
On day six the test compounds were added to the neuronal cell cultures in NB media and B27 supplement minus antioxidants.
Test compounds were dissolved in 100% DMSO to a concentration of 2.5 mM (10 mM if excess compound was weighed out per vial—then diluted to 2.5 mM).
Test compounds were not added directly to cells, instead they were added to a 48 well ‘Drug Plate’ as comprised below:
The Drug Plate was incubated at 37° C. for 15 mins. 200 μl of each well was added in triplicate to the corresponding cell plate. The cell plate was incubated at 37 C, for 4 days.
On completion of the assay, 1/10 volume MTS was added per well of plate (ie 25 μl/250 μl). The plates were incubated at 37 C for 2 hrs, and then absorbance was read at 560 nm.

T1 sequence (P05067 672-713 limits assumed): as above

| Compound | IC50 [1] [µM] | Cytotox (% viable) M17 cells at 1 μM [2] [%] | Cytotox (% viable) M17 cells at 10 μM [2] [%] | Disaggregation % Aggregate reduction at 5 μM [3] [%] | EC50 [3] [µM] | Cytotox (% viable) Neuronal cells at 1 μM [4] [%] | Cytotox (% viable) Neuronal cells at 10 μM [4] [%] |
| --- | --- | --- | --- | --- | --- | --- | --- |
| CCCNC(=O)Cn1cnc2c(O)c(I)ccc2c1=O [PB 1166] | 0.43 | 105 | 115.8 | 21.7 | > 20 |  |  |
| O=C(Cn1cnc2c(O)cccc2c1=O)Nc1ccccn1 [PB 1182] | 0.59 | 110.1 | 98.2 | 24 | > 20 |  |  |
| CCC(C)Cn1cnc2c(O)cccc2c1=O (stereo not drawn) [PB 1184] | 0.54 | 102.7 | 47.2 | 49 | 5.27 |  |  |
| O=c1c2c(Cl)cc(I)c(O)c2ncn1Cc1ccccn1 [PB 1141] | 0.48 | 102.8 | 137 | 26 | 19.5 |  |  |
| CN(C)c1ccc(-c2cc(Cl)c3cccnc3c2O)cc1 [PB 851] |  |  |  |  |  | 94 | 85 |
| Oc1cccc2sc(Cc3ccccc3)nc12 [PB 1191] | > 10 |  |  | 10 | 6.89 |  |  |
| Br.C/C=C/Cn1cnc2c(O)c(Cl)cc(Cl)c2c1=O [PB 1126] |  |  |  | 69 | 3.7 |  |  |
| COc1ccc(NCc2cccc3cccnc23)cc1 [PB 1194] | > 10 |  |  | 21.5 | > 20 |  |  |
| O=c1c2c(Cl)ccc(O)c2ncn1Cc1ccccn1 [PB 1133] | 0.79 |  |  | 22 | > 20 |  |  |
| O=C1c2ccccc2C(=O)N1CCn1cnc2c(O)cccc2c1=O [PB 1185] | 0.6 | 103.9 | 106.5 | 35 | 9.5 |  |  |
| O=S(=O)(O)c1ccc(-c2ccnc3c2ccc2c(-c4ccc(S(=O)(=O)O)cc4)ccnc23)cc1 [PB 68] | > 10 |  |  | 44 | 8.5 |  |  |
| CCc1cnc2c(O)cccn2c1=S [PB 1143] | 0.48 | 93.3 | 73.7 | 62 | 4.1 |  |  |
| Br.CC(Br)CCn1cnc2c(O)c(Cl)cc(Cl)c2c1=O (stereo not drawn) [PB 1114] |  |  |  | 19.2 | > 20 | 101 | 73 |
| Fc1ccc(NCc2cccc3cccnc23)cc1 [PB 1195] | > 10 |  |  | 19.9 | > 20 |  |  |
| CCCCCn1cnc2c(O)c(I)ccc2c1=O [PB 1176] | 0.3 | 86.3 | 38.5 | 45 | 6.9 |  |  |
| CCCCNC(=O)c1cnc2c(O)cccn2c1=O [PB 1159] | 0.68 | 115 | 41.1 | 49.9 | 5.06 |  |  |

| Compound | IC50 [1] [µM] | Cytotox (% viable) M17 cells at 1 μM [2] [%] | Cytotox (% viable) M17 cells at 10 μM [2] [%] | Disaggregation % Aggregate reduction at 5 μM [3] [%] | EC50 [3] [µM] | Cytotox (% viable) Neuronal cells at 1 μM [4] [%] | Cytotox (% viable) Neuronal cells at 10 μM [4] [%] |
| --- | --- | --- | --- | --- | --- | --- | --- |
| O=c1c2cccc(O)c2ncn1Cc1ccccn1 [PB 1117] | 0.72 | 109.2 | 96 | 57.3 | < 0.4 |  |  |
| O=c1c2cccc(O)c2ncn1CC1CC1 [PB 1118] | 1.44 | 106.8 | 88.6 | 58 | < 0.4 |  |  |
| CCN(CC)CCNC(=O)c1cnc2c(O)cccn2c1=O [PB 1199] | 1.64 | 115.2 | 102.7 | 20.4 | > 20 |  |  |
| O=c1c2ccc(I)c(O)c2ncn1Cc1cccc(Cn2cnc3c(O)c(I)ccc3c2=O)n1 [PB 1155] | 0.31 |  |  | 59 | 3.9 |  |  |
| CCN(CC)C(=O)Cn1cnc2c(O)c(I)ccc2c1=O [PB 1167] | 0.39 | 92.2 | 98.7 | 39.3 | 7.4 |  |  |
| O=c1c2cccc(O)c2ncn1-c1ccc(F)cc1 [PB 1156] | 0.96 | 92.7 | 67.5 | 22 | > 20 |  |  |
| O=C(Nc1nc2ccc(F)cc2s1)c1cnc2c(O)cccn2c1=O [PB 1174] | 0.96 | 60.1 | 34.2 | 22 | 14.7 |  |  |
| CCN(CC)CCn1cnc2c(O)c(I)ccc2c1=O [PB 1163] | 0.29 | 106.5 | 41.4 | 43.3 | 11 |  |  |
| O=c1c2ccc(I)c(O)c2ncn1-c1ccc(F)cc1 [PB 1162] | 3.2 | 93.9 | 36.5 | 52 | 4.7 |  |  |
| CCn1cnc2c(O)c(I)cc(I)c2c1=O [PB 1169] | 0.31 |  |  | 64 | 1.44 |  |  |
| c1ccc(-c2ccccn2)nc1 [PB 898] | 0.23 |  |  | 32 | > 20 |  |  |
| O=C1c2ccccc2C(=O)N1CCn1cnc2c(O)c(I)ccc2c1=O [PB 1170] | 0.72 | 127.4 | 104.8 | 53 | 4.28 |  |  |
| Oc1ccccc1-c1cn2ccccc2n1 [PB 1173] | > 20 |  |  | 10 | > 20 |  |  |
| O=c1c2c(Cl)ccc(O)c2ncn1CC1CC1 [PB 1132] | 0.47 | 86.3 | 57.6 | 16 | 15.2 |  |  |
| O=C(NCc1ccc(F)cc1)c1cnc2c(O)cccn2c1=O [PB 1154] | 0.64 | 76.7 | 54.2 | 31 | > 20 |  |  |
| CCc1cnc2c(O)cccn2c1=O [PB 1124] | 0.4 | 96.1 | 27.1 | 8.4 | > 20 |  |  |
